Results from US20210253651A1, “METHOD FOR PRODUCING ORGANIC COMPOUND-ENCAPSULATING FERRITIN” (Ajinomoto Co., Inc., priority 2018, published 2021).
Counter-ions that a name gives are not always drawn.

Legend:
FTL ferritin = target: T1, FTL ferritin (Homo sapiens, UniProt P02792); experiment: one-step incorporation of DOX into FTL ferritin; format: physicochemical; conditions: pH 8, 50° C., 60 minutes, DOX 0.3 mg/L
T1 construct: made in house; host or cells: Escherichia coli BL21 (DE3), plasmid pET20-FTL
T1 sequence (P02792 whole entry): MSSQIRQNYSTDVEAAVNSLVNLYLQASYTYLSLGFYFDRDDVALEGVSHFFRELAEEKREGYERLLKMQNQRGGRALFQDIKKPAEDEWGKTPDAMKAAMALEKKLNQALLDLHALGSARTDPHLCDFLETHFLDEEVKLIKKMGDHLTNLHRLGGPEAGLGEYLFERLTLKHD
Description: The incorporation of the reagent into L chain reagent was carried out using the one-step process. Total synthesis was carried out for a DNA encoding a human-derived ferritin L chain (FTL (SEQ ID NO: 2)) monomer. PCR was carried out using the synthesized DNA as a template as well as the following primers: 5′-[…]-3′ (SEQ ID NO: 234) and 5′-[…]-3′ (SEQ ID NO: 235). PCR was carried out using pET20 (Merck KGaA) as a template as well as the following primers: 5′-[…]-3′ (SEQ ID NO: 5) and 5′-[…]-3′ (SEQ ID NO: 6). The resulting PCR products were purified using Wizard DNA Clean-Up System (Promega Corporation), and then subjected to In-Fusion enzyme treatment at 50° C. for 15 minutes using In-Fusion HD Cloning Kit (Takara Bio Inc.) to construct an expression plasmid (pET20-FTL) carrying a gene encoding FTL monomer.
DOX was mixed with 1 mL of 50 mM Tris-HCl buffer (pH 8) that contains each mutate FTL ferritin at a final concentration of 1 mg/mL, to achieve a final concentration of 0.3 mg/L, and then the resulting solutions were left to stand at 50° C. for 60 minutes. […] The concentration of contained protein was determined using the protein assay CBB solution (Nacalai Tesque, Inc.) as well as bovine albumin as a standard. The DOX concentration was determined based on analysis of the absorbance at 480 nm.

FTH ferritin [1] = target: T2, FTH ferritin (Homo sapiens, UniProt P02794); experiment: disassembly-reassembly process incorporation of DOX into FTH ferritin; format: physicochemical; conditions: standing 15 minutes, DOX 0.2 mg/L
T2 construct: made in house; host or cells: Escherichia coli BL21 (DE3), plasmid pET20-FTH
T2 sequence (P02794 whole entry): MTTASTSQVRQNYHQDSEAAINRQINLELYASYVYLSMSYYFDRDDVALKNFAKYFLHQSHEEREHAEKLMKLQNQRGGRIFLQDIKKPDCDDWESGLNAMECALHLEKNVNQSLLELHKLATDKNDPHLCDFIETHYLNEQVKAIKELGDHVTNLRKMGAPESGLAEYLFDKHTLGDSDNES
Description: Then, 10 μL of 1M Tris-HCl buffer (pH 9.0) was added for neutralization, and the resulting solution was left to stand for 5 to 120 minutes at room temperature. After the standing, 0.5 mL of water was added to the resulting solution. After the resulting solution was centrifuged (at 15,000 rpm for one minute), the supernatant was injected into the desalting column PD-10 (Sephadex G-25 filled product, GE Healthcare Inc.) equilibrated with 10 mM Tris-HCl buffer (pH 8) to separate the protein from a reagent that was not encapsulated. Whole amount (3.5 mL) of the resulting solution was concentrated to 0.1 mL by centrifugal ultrafiltration using Vivaspin 20-100K (GE Healthcare Inc.), and then the absorbances at 280 nm and 480 nm were measured using spectrophotometer (DU-800, Beckman Coulter Inc.).

FTH ferritin [2] = target: T2, FTH ferritin; experiment: estimation of state of DOX in FTH ferritin internal cavity; conditions: 165 molecules of DOX per molecule of FTH ferritin, cavity volume 0.18 zL
Excerpt: Ferritin has a cage shape having a diameter of 12 nm, and the diameter of an internal cavity thereof is 7 nm. Ideally, the volume of the internal cavity is 0.18 zL (zL: Zepto little, 10 to the negative power of 21). […] In view of this, it is necessary to disassemble ferritin once to allow DOX to be released in advance for quantification of DOX incorporated in ferritin by means of spectroscopic evaluation.

Compound: COc1cccc2c1C(=O)c1c(O)c3c(c(O)c1C2=O)C[C@@](O)(C(=O)CO)C[C@@H]3OC1CC(N)C(O)C(C)O1 (stereo partly drawn) [DOX, Doxorubicin hydrochloride]
- incorporation efficiency of the reagent (FTL ferritin): 7.0 % (wt)
- highest incorporation efficiency of the reagent (FTH ferritin [1]): 2 % (wt)
- concentration of DOX in the internal cavity of ferritin (FTH ferritin [2]): 890 g/L
